Reference: patent US6846777B2, “Synergistic biocidal composition” (Thor GmbH, priority 2000, dated 2005)
Values joined by “and” are separate entries in the source; they are usually repeats but may differ in a detail not shown here. Identical values can stand only once. Like-named read-outs stand apart in the source and are kept apart here.

Experiments:
Assay in all cases: MIC values / microbial growth in Sabouraud maltose broth and synergistic index (Kull)
Type in all cases: cell-based
[1] = tested on: Penicillium funiculosum DSM 12637; conditions: employed alone, incubation 96 hours at 25° C.; for MIC: Talaromyces funiculosus, DSM12637
Protocol: (§1) In addition to the biocide component and water, the aqueous mixtures also comprised a nutrient medium, viz. a Sabouraud maltose broth (commercial product, Merck No. 10393). The cell density was 10^6 cells/ml. The incubation time was 96 hours at 25° C. Each sample was incubated in a shaker-incubator at 120 rpm.
(§2) The synergistic index calculated by the method of F. C. Kull et al., Applied Microbiology, vol. 9 (1961), p. 538. Here, the synergistic index is calculated using the following formula: Synergistic index SI=Qa/QA+Qb/QB.
(§3) If the synergistic index has a value of above 1, this means that antagonism is present. If the synergistic index assumes a value of 1, this means that an additive effect of the two biocides exists. If the synergistic index assumes a value of less than 1, this means that synergism of the two biocides exists.
Again, the experimental batches contained a Sabouraud maltose broth as the nutrient medium. The cell density was 10^6 cells/ml. The incubation time was 96 hours at 25° C. Each sample was incubated in a shaker-incubator at 120 rpm.

[2] = tested on: Aspergillus niger DSM 1957; conditions: for MIC: Aspergillus niger, DSM1957; for Synergistic index Qa/QA + Qb/QB: single active ingredient alone
Protocol: as §1, §2, §3
(§4) Again, the experimental batches contained a Sabouraud maltose broth as the nutrient medium. The cell density was 10^6 cells/ml. The incubation time was 72 hours at 25° C. Each sample was incubated in a shaker-incubator at 120 rpm.

[3] = tested on: Penicillium funiculosum IMI 211742; conditions: employed alone, incubation 72 hours at 25° C.; for MIC: Talaromyces funiculosus, IMI211742
Protocol: as §1, §2, §3, §4

MIC ([2]; DCOIT alone (100.0 % by weight), 72 h/25° C., read-out: MIC at DCOIT concentration Qb) [µg/mL] | MIC ([2]; employed alone, incubation 72 hours at 25° C., read-out: MIC value) [µg/mL] | Molecule | MIC [1] [µg/mL] | Synergistic index Qa/QA + Qb/QB ([2]; 72 h/25° C.) | MIC [3] [µg/mL] | MIC value [1] [ppm] | MIC at ZnPy concentration Qa ([2]; ZnPy alone (100.0 % by weight), 72 h/25° C.) [ppm] | MIC value ([2]; employed alone, incubation 72 hours at 25° C.) [ppm] | MIC value [3]
0.75 | 0.75 | CCCCCCCCn1sc(Cl)c(Cl)c1=O [DCOIT, 4,5-dichloro-2-n-octyl-4-isothiazolin-3-one] | 2 | 1.00 | 1 | – | – | – | –
– | – | CCCCNC(=O)OCC#CI [IPBC, 3-iodo-2-propynyl N-butylcarbamate] | 2 | – | 0.75 | – | – | – | –
– | – | CCCCCCCCn1sccc1=O [OIT, 2-n-octylisothiazolin-3-one] | – | – | – | 0.5 | – | – | –
– | – | zinc pyrithione [ZnPy] | – | 1.00 | – | 2 | 17.5 | 17.5 | 1 ppm and 0.75 ppm
